Consider ten compounds from patent publication US6852726B2, “Substituted indoles as alpha-1 agonists” (Syntex LLC, priority 2002, dated 2005).

In data set [1] the target is T1, alpha-1A adrenoceptors expressed in CHO-K1 cells (clone 13) (Homo sapiens, UniProt P35348).
T1 construct: expressed in transfected cells; host or cells: CHO-K1 (clone 13)
T1 sequence (P35348 1-466): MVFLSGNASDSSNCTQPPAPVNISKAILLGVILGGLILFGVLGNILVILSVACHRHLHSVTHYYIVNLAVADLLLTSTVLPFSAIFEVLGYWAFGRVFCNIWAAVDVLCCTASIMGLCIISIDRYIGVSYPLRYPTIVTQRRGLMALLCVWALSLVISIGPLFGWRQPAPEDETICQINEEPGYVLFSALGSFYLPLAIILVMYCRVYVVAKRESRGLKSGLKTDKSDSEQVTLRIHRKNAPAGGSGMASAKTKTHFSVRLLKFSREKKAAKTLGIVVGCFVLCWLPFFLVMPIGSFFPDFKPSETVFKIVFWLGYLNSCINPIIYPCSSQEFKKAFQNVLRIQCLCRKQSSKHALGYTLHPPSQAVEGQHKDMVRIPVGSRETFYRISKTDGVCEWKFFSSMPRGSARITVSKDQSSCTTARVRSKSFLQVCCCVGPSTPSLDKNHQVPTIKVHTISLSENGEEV
The experiment in a line: Functional assay for alpha-1A/L agonist activity (FLIPR, Fluo-3 intracellular calcium). The data set is classed as cell-based. Conditions: for IA (intrinsic activity): maximum response relative to full agonist norepinephrine bitartrate, CHO-K1 alpha-1A cells. From the text: The inhibitory activity of compounds of this invention in vitro was examined using fluorescent dye determination of intracellular calcium concentrations as described in Example 6.
Functional Assay for Alpha-1A/L Agonist Activity
The inhibitory activity of compounds of this invention in vitro was examined using fluorescent dye determination of intracellular calcium concentrations.
Chinese hamster ovary cells CHO-K1 expressing the alpha-1A adrenoceptors (clone 13) are washed 4 times (approx. 300 μL/well) with fluorometric imaging plate reader (FLIPR) buffer (Hank's buffered saline solution (HBSS), 2 mM CaCl2, 10 mM HEPES, 2,5 mM probenecid, 100 μM ascorbic acid), with a final volume of 150 μL/well. Cells are loaded with 50 μL/well of 8 μM Fluo-3 AM (Molecular Probes, Eugene, Oreg.), for a final concentration of 2 μM Fluo-3 AM. Cells are then incubated for 60 min at 37° C. Following dye loading, cells are washed 4 times (approx. 300 μL/well) with FLIPR buffer with a final volume of 150 μL/well.
The Test compound, control compound and reference compound are run in quadruplicate, 8-point curves on each plate with a final assay concentration range of 10^−4M to 10^−11M for each compound. All compounds are dissolved in DMSO at 10 mM, and serially diluted in FLIPR buffer.
The assay plate is placed in the FLIPR incubation chamber and a baseline fluorescence measurement (excitation @ 488 nm and emission @ 510-570 nm) is obtained (15 sec interval). An experimental run is then commenced. The reaction is started with the addition of 50 μL/well (at 4× final concentration) of test, control, or reference compound solution from the agonist plate to the assay plate to all 96 wells simultaneously. Fluorescence is measured for 120 sec at 1 sec intervals. Then, a second addition of 5 μM ionomycin (50 μL/well from 5× concentration ionomycin plate) is added to the assay plate. Fluorescence is measured for 30 sec at 1 sec intervals. All experiments are conducted at room temperature.
For each assay plate, responses (increase in peak fluorescence) in each well following addition of agonist (test, control and reference) are determined. These responses may be expressed as raw CFU (Corrected Fluorescence Units), as a % maximum ionomycin response or other unit as determined by the investigator.
For test compound, control compound (Noerepinephrine (NE) bitartrate), and reference compound, the concentration producing a 50% increase in control response (EC50) is determined using iterative curve-fitting methods. Excel spreadsheet or Kaleidagraph software are used to fit data to the general logistic function (E=B+Emax·A^nH/A^nH+EC50^nH), where B is the corrected baseline fluorescence units (defined as zero), A is the concentration of agonist added and nH is the Hill slope (constrained to unity). EC50 values and maxima (Emax) for each curve can be estimated objectively using this software.
In addition the intrinsic activity (α) is determined. Intrinsic activity is defined as the maximum response to test agonist divided by the maximum response to a full agonist acting through the same receptor. For these experiments, the full agonist is defined as Norepinephrine (NE) bitartrate (control).
On the technique in general: Calcium assays in cells follow changes in intracellular calcium, usually with a dye or a luminescent sensor.

[2] abbreviates: CHO-K1 cells expressing alpha-1A adrenoceptors, FLIPR calcium fluorescence, room temperature.

The term pEC50 denotes the negative decadic logarithm of the EC50, by convention in mol/L. As to “6-Bromo-1-(4,5-dihydro-1H-imidazol-2-ylmethyl)-1H-indole-3-carboxylic acid dimethylamide [Example 17]”, the pEC50 in data set [1] (setting [2]) stood at 8.34. Further, the “IA (intrinsic activity)” value in data set [1] was found to be 1.02.

A word on the EC50: it is the concentration needed to bring the measured effect to its halfway point. With `Cc1c(S(C)(=O)=O)c2c(S(C)(=O)=O)cccc2n1CC1=NCCN1` [1-(4,5-Dihydro-1H-imidazol-2-ylmethyl)-3,4-bis-methanesulfonyl-2-methyl-1H-indole], the 50% effective concentration (EC50) in data set [1] (setting [2]) is 1050 nM. Also, the “IA (intrinsic activity)” value in data set [1] was 1.04.

For the compound `Cc1c(S(C)(=O)=O)c2ccc(S(C)(=O)=O)cc2n1CC1=NCCN1` [1-(4,5-Dihydro-1H-imidazol-2-ylmethyl)-3,6-bis-methanesulfonyl-2-methyl-1H-indole], in data set [1] (setting [2]), the 50% effective concentration (EC50) is 60300 nM. Also, the “IA (intrinsic activity)” value in data set [1] came out at 0.18.

With `CS(=O)(=O)c1cn(CC2=NCCN2)c2ccccc12` [1-(4,5-Dihydro-1H-imidazol-2-ylmethyl)-3-methanesulfonyl-1H-indole], the EC50 in data set [1] (setting [2]) is 2.29 nM. For the same compound, in data set [1], the “IA (intrinsic activity)” value was 1.07.

`Cc1c(S(C)(=O)=O)c2ccccc2n1CC1=NCCN1` [1-(4,5-Dihydro-1H-imidazol-2-ylmethyl)-3-methanesulfonyl-2-methyl-1H-indole]: in data set [1] (setting [2]), the EC50 is 0.832 nM. For the same compound, in data set [1], the “IA (intrinsic activity)” value is listed as 1.00.

In the case of `Cc1c(S(C)(=O)=O)c2cccc(C(F)(F)F)c2n1CC1=NCCN1` [1-(4,5-Dihydro-1H-imidazol-2-ylmethyl)-3-methanesulfonyl-2-methyl-7-trifluoromethyl-1H-indole], the EC50 in data set [1] (setting [2]) is 141 nM. In data set [1], the “IA (intrinsic activity)” value turned out to be 0.96.

In the case of `COc1ccc2c(S(C)(=O)=O)c(C)n(CC3=NCCN3)c2c1` [1-(4,5-Dihydro-1H-imidazol-2-ylmethyl)-3-methanesulfonyl-6-methoxy-2-methyl-1H-indole], in data set [1] (setting [2]), the 50% effective concentration (EC50) was 10 nM. For the same compound, the “IA (intrinsic activity)” value in data set [1] stood at 1.05.

On to `Cc1ccc2c(c1)c(S(C)(=O)=O)c(C)n2CC1=NCCN1.Cl` [1-(4,5-Dihydro-1Hmidazol-2-ylmethyl)-3-methanesulfonyl-2,5-dimethyl-1H-indole], for which the 50% effective concentration (EC50) in data set [1] (setting [2]) was 23.4 nM. For the same compound, the “IA (intrinsic activity)” value in data set [1] is 0.93.

For `CN(C)S(=O)(=O)c1cn(CC2=NCCN2)c2cc(Cl)ccc12` [6-Chloro-1-(4,5-dihydro-1H-imidazol-2-ylmethyl)-1H-indole-3-sulfonic acid dimethylamide], in data set [1] (setting [2]), the EC50 was 9.12 nM. For the same compound, the “IA (intrinsic activity)” value in data set [1] is on record as 1.00.

A word on the melting point: it is the temperature, or range, at which the solid turns liquid. `Cc1c(S(C)(=O)=O)c2cccc(Cl)c2n1CC1=NCCN1` [Example 4, 7-Chloro-1-(4,5-dihydro-1H-imidazol-2-ylmethyl)-3-methanesulfonyl-2-methyl-1H-indole] came in with a melting point of 221 to 223 °C.
